Laboratory results from PMC12344693, “Human Milk Oligosaccharides Multivalently Presented on Defined Synthetic Neo-Glycoproteins Are Nanomolar Ligands of Tandem-Repeat Galectins” (Biomacromolecules, 2025).
Several values for one entry are separate records, joined by “and”; a condition that tells them apart may be missing. Identical values can stand only once. Like-named read-outs stand apart in the source and are kept apart here.

Columns and labels:
Gal-1 = Gal-1 (Homo sapiens, UniProt P09382, C3S); assay: competitive ELISA, inhibition of galectin binding to immobilized asialofetuin
Procedure: (§1) The inhibitory potential of the prepared glycan library and the respective multivalent neo-glycoproteins with Gal-1, -3, -4, -8, and -9 was evaluated using a competitive ELISA assay as described by Vašíček et al. Asialofetuin (ASF; 0.1 μM in PBS, 50 μL/well) was immobilized onto microtiter plates (Nunc Immuno Sorb, ThermoFisher Scientific, USA) overnight at 4 °C. Wells were subsequently washed three times with PBS containing 0.05%, v/v, Tween-20 (250 μL/wash). Each assay step was followed by a washing step to ensure the thorough removal of unbound reagents. Blocking was performed using 2%, w/v, BSA in PBS (250 μL/well) for 1 h at room temperature. Serial dilutions of the inhibitors prepared in EPBS buffer (PBS containing 2 mM EDTA) were incubated with a constant concentration of galectin (2.5 μM Gal-1, Gal-3, and Gal-4; 0.5 μM Gal-8 and Gal-9) for 2 h. […] Residual galectin bound to ASF was detected using the anti-His-tag antibody conjugated to horseradish peroxidase (Santa Cruz Biotechnology, 1:999 dilution in PBS). Detection was achieved by adding 50 μL of TMB One substrate solution (Kem-En-Tech, Denmark), which developed a blue color that turned yellow upon the addition of 50 μL of 3 M HCl. Absorbance at 450 nm was measured using a microplate reader (Sunrise, Tecan Group Ltd., Switzerland) reflecting the amount of galectin bound to the wells. Half-maximal inhibitory concentration (IC50) values were calculated by nonlinear regression (dose–response inhibition with variable slope) of sigmoidal curves using GraphPad Prism version 8.4.3 (GraphPad Software, USA).
(§2) Serially diluted ligands and NGPs were incubated with individual galectin species in the wells coated with asialofetuin (ASF). The remaining galectin bound to the immobilized ASF was detected using an anti-His6 antibody.

Gal-4 [1] = target: T1, Gal-4 (Homo sapiens, UniProt P56470); parameters: method as in previously published by us; details: competitive ELISA vs immobilized ASF; footnote b; ref previously published by us; cited from earlier work
T1 construct: Full-length recombinant human galectins (Gal-1, Gal-3, Gal-4, Gal-8, and Gal-9) for ELISA assays; made in house; host or cells: E. coli Rosetta 2(DE3)pLysS
T1 sequence (P56470 1-323): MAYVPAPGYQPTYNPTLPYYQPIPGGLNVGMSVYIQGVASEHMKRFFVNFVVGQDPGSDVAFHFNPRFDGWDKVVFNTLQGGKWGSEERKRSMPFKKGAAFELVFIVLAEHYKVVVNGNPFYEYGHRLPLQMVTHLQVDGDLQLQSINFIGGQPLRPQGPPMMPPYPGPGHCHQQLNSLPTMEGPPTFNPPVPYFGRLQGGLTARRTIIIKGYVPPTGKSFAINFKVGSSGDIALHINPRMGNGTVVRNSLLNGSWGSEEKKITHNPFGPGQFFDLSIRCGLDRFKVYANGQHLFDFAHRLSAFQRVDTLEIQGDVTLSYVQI

Gal-9 = target: T2, Gal-9 (Homo sapiens, UniProt O00182, A222P/DEL149-219); assay: competitive ELISA, inhibition of galectin binding to immobilized asialofetuin; details: competitive ELISA vs immobilized ASF; 0.5 μM Gal-9; at least quadruplicate
T2 construct: Full-length recombinant human galectins (Gal-1, Gal-3, Gal-4, Gal-8, and Gal-9) for ELISA assays; made in house; host or cells: E. coli Rosetta 2(DE3)pLysS
Procedure: as §1, §2

Gal-3 = Gal-3 (Homo sapiens, UniProt P17931); assay: as above
Procedure: as §1, §2

Gal-8 = target: T3, Gal-8 (Homo sapiens, UniProt O00214); assay: as above; details: competitive ELISA vs immobilized ASF; 0.5 μM Gal-8; at least quadruplicate
T3 construct: Full-length recombinant human galectins (Gal-1, Gal-3, Gal-4, Gal-8, and Gal-9) for ELISA assays; made in house; host or cells: E. coli Rosetta 2(DE3)pLysS
T3 sequence (O00214 1-317): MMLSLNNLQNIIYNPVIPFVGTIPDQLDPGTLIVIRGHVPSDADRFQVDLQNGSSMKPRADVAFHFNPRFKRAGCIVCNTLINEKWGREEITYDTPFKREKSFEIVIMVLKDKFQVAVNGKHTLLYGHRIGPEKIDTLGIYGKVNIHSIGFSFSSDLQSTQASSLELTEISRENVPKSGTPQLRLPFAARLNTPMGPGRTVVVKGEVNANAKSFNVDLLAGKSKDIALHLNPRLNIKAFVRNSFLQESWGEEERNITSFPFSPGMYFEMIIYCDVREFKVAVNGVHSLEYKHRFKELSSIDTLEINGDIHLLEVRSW
Procedure: as §1, §2

Gal-4 [2] = target: T1, Gal-4; assay: as above; details: competitive ELISA vs immobilized ASF; 2.5 μM Gal-4; at least quadruplicate
Procedure: as §1, §2

Chain of Gal-3 (P17931 whole entry): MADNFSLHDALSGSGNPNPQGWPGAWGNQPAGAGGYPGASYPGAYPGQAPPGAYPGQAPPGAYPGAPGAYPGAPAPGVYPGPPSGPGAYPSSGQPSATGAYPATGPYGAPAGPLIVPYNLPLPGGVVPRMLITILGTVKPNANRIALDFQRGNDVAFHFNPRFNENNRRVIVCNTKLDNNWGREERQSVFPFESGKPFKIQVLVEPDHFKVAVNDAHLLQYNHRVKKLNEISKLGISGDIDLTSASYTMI
T2 sequence (O00182 with tags, fused parts or gaps DEL149-219/A222P): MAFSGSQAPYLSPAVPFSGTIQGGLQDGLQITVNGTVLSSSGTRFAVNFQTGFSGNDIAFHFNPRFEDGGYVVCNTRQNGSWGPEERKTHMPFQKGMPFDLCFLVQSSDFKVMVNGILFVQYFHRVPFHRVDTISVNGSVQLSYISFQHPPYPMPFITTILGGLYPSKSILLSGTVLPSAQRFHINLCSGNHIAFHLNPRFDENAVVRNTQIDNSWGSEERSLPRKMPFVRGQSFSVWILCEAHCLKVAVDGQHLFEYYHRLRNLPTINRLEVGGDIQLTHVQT
Chain of Gal-1 (P09382 whole entry C3S): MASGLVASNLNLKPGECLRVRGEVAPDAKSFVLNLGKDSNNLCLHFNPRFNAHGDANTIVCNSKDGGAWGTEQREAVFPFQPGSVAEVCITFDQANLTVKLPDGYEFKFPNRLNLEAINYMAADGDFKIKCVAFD

| SMILES | IC50 (Gal-1) | IC50 (Gal-4 [1]) | IC50 (Gal-9) | IC50 (Gal-3) | IC50 (Gal-8) | IC50 (Gal-4 [2]) | IC50 (Gal-3; read-out: IC50 Gal-3, Table S9, competitive ELISA vs immobilized ASF, […] Gal-3, unit inferred) |
| --- | --- | --- | --- | --- | --- | --- | --- |
| CC(C)(C)OC(=O)NCCNC(=S)N[C@@H]1O[C@H](CO)[C@@H](O[C@@H]2O[C@H](CO)[C@H](O)[C@H](O)[C@H]2O)[C@H](O)[C@H]1O [Compound 1, (tert-butoxycarbonylamino)ethylthioureidyl β-D-galactopyranosyl-(1→4)-β-D-glucopyranoside] | 286 ± 23 µM | 2520 ± 180 µM | 2180 ± 670 µM | 136 ± 18 µM | 2870 ± 470 µM | – | – |
| CC(=O)N[C@H]1[C@H](O[C@H]2[C@@H](O)[C@@H](CO)O[C@@H](O[C@H]3[C@H](O)[C@@H](O)[C@H](NC(=S)NCCNC(=O)OC(C)(C)C)O[C@@H]3CO)[C@@H]2O)O[C@H](CO)[C@@H](O)[C@@H]1O[C@@H]1O[C@H](CO)[C@H](O)[C@H](O)[C@H]1O [Compound 3, (tert-Butoxycarbonylamino)ethylthioureidyl β-D-galactopyranosyl-(1→3)-2-acetamido-2-deoxy-β-D-glucopyranosyl-(1→3)-β-D-galactopyranosyl-(1→4)-β-D-glucopyranoside] | > 500 µM | – | 230 ± 43 µM | 15.2 ± 1 µM | 820 ± 140 µM | 108 ± 16 µM | – |
| CC(=O)N[C@H]1[C@H](O[C@H]2[C@@H](O)[C@@H](CO)O[C@@H](O[C@H]3[C@H](O)[C@@H](O)[C@H](NC(=S)NCCNC(=O)OC(C)(C)C)O[C@@H]3CO)[C@@H]2O)O[C@H](CO)[C@@H](O[C@@H]2O[C@H](CO)[C@H](O)[C@H](O)[C@H]2O)[C@@H]1O [Compound 4, (tert-Butoxycarbonylamino)ethylthioureidyl β-D-galactopyranosyl-(1→4)-2-acetamido-2-deoxy-β-D-glucopyranosyl-(1→3)-β-D-galactopyranosyl-(1→4)-β-D-glucopyranoside] | 436 ± 41 µM | 620 ± 100 µM | 170 µM and 168 µM | 7.3 ± 1.6 µM | 130 ± 30 µM | – | – |
| CC(=O)N[C@H]1[C@H](O[C@H]2[C@@H](O)[C@@H](CO)O[C@@H](O[C@H]3[C@H](O)[C@@H](O)[C@H](NC(=S)NCCNC(=O)OC(C)(C)C)O[C@@H]3CO)[C@@H]2O)O[C@H](CO)[C@@H](O[C@@H]2O[C@H](CO)[C@H](O)[C@H](O)[C@H]2NC(C)=O)[C@@H]1O [Compound 5, (tert-Butoxycarbonylamino)ethylthioureidyl 2-acetamido-2-deoxy-β-D-galactopyranosyl-(1→4)-2-acetamido-2-deoxy-β-D-glucopyranosyl-(1→3)-β-D-galactopyranosyl-(1→4)-2-β-D-glucopyranoside] | 435 ± 102 µM | – | 326 ± 26 µM | 2.2 ± 1.3 µM | 75 ± 9 µM | 1620 ± 260 µM | – |
| CC(=O)N[C@@H]1[C@@H](O)[C@H](O[C@@H]2O[C@H](CO)[C@H](O)[C@H](O)[C@H]2O)[C@@H](CO)O[C@H]1NC(=S)NCCNC(=O)OC(C)(C)C [Compound 7, Galβ4GlcNAc-tBoc] | 79 ± 9 µM | – | 2840 ± 650 µM | 47 ± 6 µM | 18700 µM | 8630 ± 530 µM | – |
| CC(=O)N[C@@H]1[C@@H](O)[C@H](O[C@@H]2O[C@H](CO)[C@H](O)[C@H](O[C@@H]3O[C@H](CO)[C@@H](O)[C@H](O[C@@H]4O[C@H](CO)[C@H](O)[C@H](O)[C@H]4O)[C@H]3NC(C)=O)[C@H]2O)[C@@H](CO)O[C@H]1NC(=S)NCCNC(=O)OC(C)(C)C [Compound 9, (tert-Butoxycarbonylamino)ethylthioureidyl β-D-galactopyranosyl-(1→3)-2-acetamido-2-deoxy-β-D-glucopyranosyl-(1→3)-β-D-galactopyranosyl-(1→4)-2-acetamido-2-deoxy-β-D-glucopyranoside] | > 500 µM | – | > 5000 µM | – | > 5000 µM | 2380 ± 670 µM | 27 ± 4 µM |
| CC(=O)N[C@@H]1[C@@H](O)[C@H](O[C@@H]2O[C@H](CO)[C@H](O)[C@H](O[C@@H]3O[C@H](CO)[C@@H](O[C@@H]4O[C@H](CO)[C@H](O)[C@H](O)[C@H]4O)[C@H](O)[C@H]3NC(C)=O)[C@H]2O)[C@@H](CO)O[C@H]1NC(=S)NCCNC(=O)OC(C)(C)C [Compound 10, (tert-Butoxycarbonylamino)ethylthioureidyl β-D-galactopyranosyl-(1→4)-2-acetamido-2-deoxy-β-D-glucopyranosyl-(1→3)-β-D-galactopyranosyl-(1→4)-2-acetamido-2-deoxy-β-D-glucopyranoside] | 106 ± 7 µM | – | 52 ± 23 µM | 12 ± 1 µM | 406 ± 46 µM | 2390 ± 490 µM | – |
| CC(=O)N[C@@H]1[C@@H](O)[C@H](O[C@@H]2O[C@H](CO)[C@H](O)[C@H](O[C@@H]3O[C@H](CO)[C@@H](O[C@@H]4O[C@H](CO)[C@H](O)[C@H](O)[C@H]4NC(C)=O)[C@H](O)[C@H]3NC(C)=O)[C@H]2O)[C@@H](CO)O[C@H]1NC(=S)NCCNC(=O)OC(C)(C)C [Compound 11, (tert-Butoxycarbonylamino)ethylthioureidyl 2-acetamido-2-deoxy-β-D-galactopyranosyl-(1→4)-2-acetamido-2-deoxy-β-D-glucopyranosyl-(1→3)-β-D-galactopyranosyl-(1→4)-2-acetamido-2-deoxy-β-D-glucopyranoside] | 98 ± 22 µM | – | 260 ± 75 µM | 2.7 ± 2.4 µM | 270 ± 85 µM | 2010 ± 1000 µM | – |
